Measurements published in patent US10765761B2, “Nucleic acid condensing peptide, nucleic acid condensing peptide set, nucleic acid delivery carrier, nucleic acid delivery method, cell production method, cell detection method and kit” (KABUSHIKI KAISHA TOSHIBA, priority 2016, dated 2020).

What was measured:
nucleic acid = assay: Gel retardation assay: encapsulation of nucleic acid to liposome, Example 4; settings: Complex with SDS 1% (liposome cleaved), 0.8% agarose gel (FIG. 9)
Experimental: The encapsulation of nucleic acid to liposome by the peptide of the embodiment was evaluated with a gel retardation assay.
As samples for the encapsulation evaluation, two sets of 8.0 μL of 10 mM-HEPES (pH: 7.0) were prepared and 1.0 μL of solutions of Complex respectively containing the mHP-1 or mHP-3 of Example 3 and sodium dodecyl sulfate (SDS, the final concentration: 1%) which cleavages liposome were added thereto, to prepare mixtures. In addition, as controls, a mixture to which 1.0 μL of a poly-glutamic-acid (PGA) solution was added in place of SDS, and a sample which contains neither SDS nor PGA were prepared. After the solutions were let stand still for 15 minutes at room temperature, 1.0 μL of an electrophoretic buffer (50%-sucrose solution) was added to each mixture, and they were mixed well, to carry out electrophoresis with a 0.8%-agarose gel. After the electrophoresis, the gel was immersed in an ethidium bromide solution to dye the nucleic acid and the gel was photographed while irradiating it with UV, thus detecting the nucleic acid.
FIG. 9 is a photograph taken by irradiating the agarose gel with UV.

[1] = test system: human normal mammary gland epithelial cells (HMEC); assay: Transfection of nucleic acid (pAmp-CMV-nLuc) into cells by liposome, luminescence imaging, Example 5; format: cell-based; settings: 48 hours after addition of the liposome, NanoLuc (FIG. 10)
Source text: As nucleic acid to be encapsulated in the liposome, pAmp-CMV-nLuc was used. The pAmp-CMV-nLuc is a reporter vector which contains a NanoLuc gene as the reporter gene. The pAmp-CMV-nLuc includes a CMV promoter as a gene expression promoter, and in its lower stream, a NanoLuc gene, IRES sequence and a replication initiation protein (LT, large T antigen) gene of simian virus 40 (SV40) which are liked in this order, and further, in a lower stream, a replication initiation sequence (SV40 ori) of SV40. Using this nucleic acid, the protamine of Example 3 and the peptides of the mHP-1 and mHP-3, a liposome solution was produced by a method similar to that of Example 3.
The liposome solution prepared as above was added to human normal mammary gland epithelial cells (HMEC) (Kurabo Industries). The HMEC used here was prepared by reviving from an HMEC freeze stock and thereafter culturing in an incubator of a 5%-CO2 atmosphere at 37 degrees Celsius for six to seven days. […]
48 hours after the addition of the liposome, a luminescence substrate (Nano-Glo Luciferase Assay Substrate and Promega) was added to the culture medium to dilute to 1/2000. This culture dish was set to LV200 (a luminescence imaging system of Olympus) and photographed. […]

plasmid = assay: Amount of encapsulation of plasmid in liposome (Quant-iT PicoGreen dsDNA assay kit), Example 3; format: physicochemical
Experimental: COATSOME/SS-20 (Nippon Oil & Fats), DOPE, cholesterol and DMG-PEG were dissolved into ethanol at a molar ratio of 5:3:1:0.3, to obtain a lipid solution. Two sets of lipid solutions (0.5 ml) put into tubes were prepared, and 0.5 ml of peptide-nucleic-acid solutions (8) (mHP-1) and (16) (mHP-3) of Example 1 were dropped thereto while stirring each lipid solution, thereby forming liposomes. 9 ml of 10 mM-HEPES (pH: 5.3) was added to each of the liposome solutions to make a total amount of 10 ml (each liposome solution will be referred to as “Complex” hereinafter). Further, on an assumption that the liposome is taken into an organism, and liposome solutions (which will be referred to as “HEPES replacement”) in which ethanol, which is the solvent of Complex is substituted by HEPES were produced. The HEPES replacements were produced by condensing each solution of Complex to 1.5 ml with an ultrafiltration film for 300 kDa, adding 8.5 ml of 100 mM-HEPES (pH: 7.4) to each, performing ultrafiltration, thereafter substituting the solvent with 10 mM-HEPES (pH: 7.4), and finally condensing to 0.5 ml. Further, the HEPES replacements were filtered for sterilization with a filter with a pore diameter of 0.45 μm to prepare solutions (which will be referred to as “0.45 μm” hereinafter).
The “peptide-nucleic-acid solution”, “HEPES substituent” and “0.45 micrometer”, each of which contain the protamine, mHP-1 or mHP-3 prepared as above were examined in terms of average particle diameter of liposome, Zeta potential and amount of encapsulation of plasmid. The average particle diameter and Zeta potential were measured using a zetasizer. The amount of encapsulation of plasmid was measured using a Quant-iT PicoGreen (registered trademark) dsDNA assay kit.

| Sequence | encapsulation of nucleic acid in liposome (nucleic acid) | luminescent cells (reporter gene expressed) [1] | Plasmid inclusion amount (plasmid; 0.45 μm filtered) | Plasmid inclusion amount (plasmid; HEPES substitution) |
| --- | --- | --- | --- | --- |
| RQRQRGGRRRRRR (Nucleic acid condensing peptide) [mHP-3] | encapsulated well | luminescence was observed in more cells than those of the sample which used the protamine | 84.14 µg/mL | 96.94 µg/mL |
| RQRQRYYRQRQRGGRRRRRR (Nucleic acid condensing peptide) [mHP-1] | encapsulated well | luminescence was observed in most cells | 37.30 µg/mL | 42.12 µg/mL |
